Tested on: MDA-MB-231 human triple negative breast cancer cells
Assay: In vitro cytotoxicity (MTS) of ZiPP-PTX conjugates
Type: cell-based
Settings: MDA-MB-231, 72 hours of drug treatment, concentration in terms of the drug, read-out: IC50 (concentration of the drug that reduced cell viability by 50%)
Description: In vitro cytotoxicity of ZiPP-PTX conjugates. In vitro cytotoxicity was done on MDA-MB-231 human triple negative breast cancer cells. 3×10^3 cells were seeded per 100 μL of media in Falcon™ 96-well cell culture plates (BD; Franklin Lakes, N.J.). The cells were allowed to adhere for 16-18 hours before being treated with free PTX and ZiPP-PTX at concentrations that ranged from sub-nanomolar to high-micromolar range. After 72 hours of drug treatment, 20 μL of […] (MTS) reagent (CellTiter 96 AQueous™ Promega; Madison, Wis.) was added to each well and incubated for an additional 2 hours. A dose-response curve for free drug and ZiPP-drug conjugate was constructed by measuring the absorbance of each well at 490 nm with a Victor3 microplate reader (Perkin Elmer; Waltham, Mass.). The 50% inhibitory concentration, IC50, was determined by fitting data to the following equation (Andrew MacKay, J., et al. Nat. Mater. 2009, 8, 993-999):
[formula] where V is viability of cells, Ctreatment is drug concentration, and p is slope of the dose response curve. This IC50 value is used to evaluate the potency of the conjugates.
The in vitro cytotoxicity of Zipp-PTX was measured by looking at the cell viability over a range of concentrations as a function of time. […]

## CC(=O)O[C@H]1C(=O)[C@@]2(C)[C@H]([C@H](OC(=O)c3ccccc3)[C@]3(O)C[C@H](OC(=O)[C@H](O)[C@@H](NC(=O)c4ccccc4)c4ccccc4)C(C)=C1C3(C)C)[C@]1(OC(C)=O)CO[C@@H]1C[C@@H]2O [free drug, Paclitaxel]
  IC50: ~2 nM
